The target of assay [1] is human c-MER catalytic domain (Homo sapiens (Human), UniProt Q12866). Nature of the assay: LanthaScreen TR-FRET kinase assay, c-MER. As to conditions: read-out: Mer TK inhibition (IC50); Biochemical IC50, TR-FRET, 10 uM ATP. In general terms: Time-resolved FRET reads energy transfer from a long-lived donor to a nearby acceptor.
Assay [2] relates to CD8-MerTK in Ba/F3-CDM cells. As to the kind of experiment: In cell MER kinase assay, Ba/F3-CDM cell proliferation without IL-3 (Celltiter-Glo). Format: cell-based, murine. As to conditions: 48 hours compound treatment, read-out: Cell growth inhibition (GI50). A digest of the protocol: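 Ba/F3 cells, IL-3-dependent, transfected with CD8-MerTK and grown without IL-3 in DMEM/10% FBS. IL-3-supplemented Ba/F3 cells run in parallel as a cytotoxicity control.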

Sequence of human c-MER catalytic domain (Q12866 587-858): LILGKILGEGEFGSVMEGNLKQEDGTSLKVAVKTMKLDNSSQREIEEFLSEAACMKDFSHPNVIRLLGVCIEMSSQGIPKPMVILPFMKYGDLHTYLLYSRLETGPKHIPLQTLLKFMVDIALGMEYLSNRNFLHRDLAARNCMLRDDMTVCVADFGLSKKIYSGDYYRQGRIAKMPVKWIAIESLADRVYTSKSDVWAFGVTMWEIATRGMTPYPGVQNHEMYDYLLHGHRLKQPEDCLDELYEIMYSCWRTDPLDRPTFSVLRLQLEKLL

As a reminder, the IC50 is the concentration that gives 50% inhibition. One may read the GI50 as the concentration at which growth is held to half of that of the control. In the case of `CN1CCN(Cc2ccc(-c3ccc(CO[C@H]4CCC[C@@H]4NC(=O)c4nc(-c5cnn(C)c5)cnc4N)cc3)cc2)CC1` [Example 194, 3-amino-6-(1-methyl-1H-pyrazol-4-yl)-N-((1S,2S)-2-((4′-((4-methylpiperazin-1-yl)methyl)-[1,1′-biphenyl]-4-yl)methoxy)cyclopentyl)pyrazine-2-carboxamide], in assay [1], the IC50 was less than 10 nM. The concentration for 50% growth inhibition (GI50) in assay [2] was less than 100 nM.
With `C[C@@H]1CN(Cc2ccc(-c3ccc(CO[C@H]4CCC[C@@H]4NC(=O)c4cc(-c5cnn(C)c5)cnc4N)c(F)c3)cc2)C[C@H](C)N1C` [Example 157, 2-amino-N-((1S,2S)-2-((3-fluoro-4′-((cis-3,4,5-trimethylpiperazin-1-yl)methyl)-[1,1′-biphenyl]-4-yl)methoxy)cyclopentyl)-5-(1-methyl-1H-pyrazol-4-yl)-nicotinamide], in assay [1], the IC50 is less than 10 nM. Further, the GI50 in assay [2] fell in the range of 100 to 500 nM.
For `CCc1cc(CO[C@H]2CNC[C@@H]2NC(=O)c2cc(-c3cnn(C4CCNCC4)c3)cnc2N)ccc1C` [Example 412, 2-amino-N-((3S,4S)-4-((3-ethyl-4-methylbenzyl)oxy)pyrrolidin-3-yl)-5-(1-(piperidin-4-yl)-1H-pyrazol-4-yl)nicotinamide], in that order: less than 10 nM and greater than 1000 nM.
For the compound `CCc1cc(CO[C@H]2CNC[C@@H]2NC(=O)c2cc(-c3ccc(C#N)cc3)cnc2N)ccc1C` [Example 400, 2-amino-5-(4-cyanophenyl)-N-((3S,4S)-4-((3-ethyl-4-methylbenzyl)oxy)pyrrolidin-3-yl)nicotinamide], in assay [1], the IC50 was less than 10 nM. The GI50 in assay [2] fell in the range of 500 to 1000 nM.
For `CN1CCN(Cc2ccc(-c3ccc(CO[C@H]4CCC[C@@H]4NC(=O)c4cc(-c5ccc(CN6CCN(C)CC6)cc5)cnc4N)cc3)cc2)CC1` [Example 368], in that order: less than 10 nM and less than 100 nM.
For `CN(C)C1CCN(Cc2ccc(-c3ccc(CO[C@H]4CCC[C@@H]4NC(=O)c4cc(-c5cnn(C)c5)cnc4N)cc3)cc2)C1` (stereo partly drawn) [Example 193, 2-amino-N-((1S,2S)-2-((4′-((3-(dimethylamino)pyrrolidin-1-yl)methyl)-[1,1′-biphenyl]-4-yl)methoxy)cyclopentyl)-5-(1-methyl-1H-pyrazol-4-yl)nicotinamide], in that order: less than 10 nM and less than 100 nM.
`CN1CCN(C(C)(C)c2ccc(-c3ccc(CO[C@H]4CCC[C@@H]4NC(=O)c4cc(-c5ccc(F)nc5)cnc4N)cc3)cc2)CC1` [Example 225, 6-amino-6′-fluoro-N-((1S,2S)-2-((4′-(2-(4-methylpiperazin-1-yl)propan-2-yl)-[1,1′-biphenyl]-4-yl)methoxy)cyclopentyl)-[3,3′-bipyridine]-5-carboxamide]: the IC50 in assay [1] is less than 10 nM. The GI50 in assay [2] was in the range of 100 to 500 nM.
For `CN1CCN(Cc2ccc(-c3ccc(CO[C@H]4CCC[C@@H]4NC(=O)c4cc(-c5ccc(CN6CCOCC6)cc5)cnc4N)cc3)cc2)CC1` [Example 379, 2-amino-N-((1S,2S)-2-((4′-((4-methylpiperazin-1-yl)methyl)-[1,1′-biphenyl]-4-yl)methoxy)cyclopentyl)-5-(4-(morpholinomethyl)phenyl)nicotinamide], in that order: less than 10 nM and less than 100 nM.
Consider `CN1CCN(c2ccc(-c3ccc(CO[C@H]4CCC[C@@H]4NC(=O)c4cc(-c5cnn(C)c5)cnc4N)cc3)cn2)CC1` [Example 148, 2-amino-5-(1-methyl-1H-pyrazol-4-yl)-N-((1S,2S)-2-((4-(6-(4-methylpiperazin-1-yl)pyridin-3-yl)benzyl)oxy)cyclopentyl)nicotinamide], for which the IC50 in assay [1] was less than 10 nM. Also, in assay [2], the GI50 is greater than 1000 nM.
For `CN1CCN(Cc2ccc(-c3ccc(CO[C@H]4CCC[C@@H]4NC(=O)c4cc(-c5ccc(F)cc5)cnc4N)cc3)cc2)CC1` [Example 363, 2-amino-5-(4-fluorophenyl)-N-((1S,2S)-2-((4′-((4-methylpiperazin-1-yl)methyl)-[1,1′-biphenyl]-4-yl)methoxy)cyclopentyl)nicotinamide], the half-maximal inhibitory concentration (IC50) in assay [1] is less than 10 nM. The GI50 in assay [2] is 100 to 500 nM.
For `CN1CCN(Cc2ccc(-c3ccc(CO[C@H]4CCC[C@@H]4NC(=O)c4cc(-c5ccc(N6CCN(C)CC6)cc5)cnc4N)cc3)cc2)CC1` [Example 367, 2-amino-N-((1S,2S)-2-((4′-((4-methylpiperazin-1-yl)methyl)-[1,1′-biphenyl]-4-yl)methoxy)cyclopentyl)-5-(4-(4-methylpiperazin-1-yl)phenyl)-nicotinamide], in that order: less than 10 nM and less than 100 nM.
With `CCc1cc(CO[C@H]2CNC[C@@H]2NC(=O)c2cc(-c3cnn(C4CCN(C)CC4)c3)cnc2N)ccc1C` [Example 413, 2-amino-N-((3S,4S)-4-((3-ethyl-4-methylbenzyl)oxy)pyrrolidin-3-yl)-5-(1-(1-methylpiperidin-4-yl)-1H-pyrazol-4-yl)nicotinamide], the half-maximal inhibitory concentration (IC50) in assay [1] was less than 10 nM. In addition, the GI50 in assay [2] was in the range of 500 to 1000 nM.
The matching figures for `Cc1cccc(C)c1CO[C@H]1CCC[C@@H]1NC(=O)c1cc(-c2cnn(C)c2)cnc1N` [Example 15, 2-amino-N-((1S,2S)-2-((2,6-dimethylbenzyl)oxy)cyclopentyl)-5-(1-methyl-1H-pyrazol-4-yl)nicotinamide]: greater than 1000 nM and greater than 1000 nM.
For `CCc1cc(CO[C@H]2CNC[C@@H]2NC(=O)c2cc(-c3ccccc3)cnc2N)ccc1C` [Example 394, 2-amino-N-((3S,4S)-4-((3-ethyl-4-methylbenzyl)oxy)pyrrolidin-3-yl)-5-phenylnicotinamide], in that order: less than 10 nM and 500 to 1000 nM.
For `CC(c1ccc(-c2ccc(CO[C@H]3CCC[C@@H]3NC(=O)c3cc(-c4cccnc4F)cnc3N)cc2)cc1)N1CCN(CCO)CC1` (stereo partly drawn) [Example 238, 6-amino-2′-fluoro-N-((1S,2S)-2-((4′-(1-(4-(2-hydroxyethyl)-piperazin-1-yl)ethyl)-[1,1′-biphenyl]-4-yl)methoxy)cyclopentyl)-[3,3′-bipyridine]-5-carboxamide], in that order: less than 10 nM and less than 100 nM.
Take `CC(c1ccc(-c2ccc(CO[C@H]3CCC[C@@H]3NC(=O)c3cc(-c4ccc(F)nc4)cnc3N)cc2)cc1)N1CCN(C)CC1` (stereo in doubt) [Example 223, 6-amino-6′-fluoro-N-((1S,2S)-2-((4′-((R)-1-(4-methylpiperazin-1-yl)ethyl)-[1,1′-biphenyl]-4-yl)methoxy)cyclopentyl)-[3,3′-bipyridine]-5-carboxamide]: the IC50 in assay [1] is less than 10 nM. Further, the GI50 in assay [2] lay in the range of 100 to 500 nM.
For the compound `CN1CCN(Cc2ccc(-c3ccc(CO[C@H]4CCC[C@@H]4NC(=O)c4cc(-c5ccc(F)c(F)c5)cnc4N)cc3)cc2)CC1` [Example 364], the IC50 in assay [1] was less than 10 nM. The concentration for 50% growth inhibition (GI50) in assay [2] was less than 100 nM.
`COC(=O)CN1CCC(Cc2ccc(-c3ccc(CO[C@H]4CCC[C@@H]4NC(=O)c4cc(-c5cnn(C)c5)cnc4N)cc3)cc2)CC1` [Example 241, Methyl 2-(4-((4′-((((1S,2S)-2-(2-amino-5-(1-methyl-1H-pyrazol-4-yl)nicotinamido)cyclopentyl)oxy)methyl)-[1,1′-biphenyl]-4-yl)methyl)piperidin-1-yl)-acetate]: the IC50 in assay [1] is less than 10 nM. Further, the concentration for 50% growth inhibition (GI50) in assay [2] was in the range of 500 to 1000 nM.
The matching figures for `CC(c1ccc(-c2ccc(CO[C@H]3CCC[C@@H]3NC(=O)c3cccnc3N)cc2)cc1)N1CCN(C)CC1` (stereo partly drawn) [Example 235, 2-amino-N-((1S,2S)-2-((4′-(1-(4-methylpiperazin-1-yl)ethyl)-[1,1′-biphenyl]-4-yl)methoxy)cyclopentyl)nicotinamide]: less than 10 nM and 500 to 1000 nM.
For the compound `CN1CCN(Cc2ccc(-c3ccc(CO[C@H]4CCC[C@@H]4NC(=O)c4cc(-c5cnn(C)c5)cnc4N)cc3)cc2C(F)(F)F)CC1` [Example 197, 2-amino-5-(1-methyl-1H-pyrazol-4-yl)-N-((1S,2S)-2-((4′-((4-methylpiperazin-1-yl)methyl)-3′-(trifluoromethyl)-[1,1′-biphenyl]-4-yl)methoxy)-cyclopentyl)nicotinamide], the IC50 in assay [1] was less than 10 nM. In addition, in assay [2], the GI50 is less than 100 nM.
Turning to `COc1ccc(-c2cnc(N)c(C(=O)N[C@H]3CCC[C@@H]3OCc3ccc(-c4ccc(CN5CCN(C)CC5)cc4)cc3)c2)cc1` [Example 376], in assay [1], the IC50 was less than 10 nM. The GI50 in assay [2] was less than 100 nM.
The matching figures for `Cn1cc(-c2cnc(N)c(C(=O)N[C@H]3CCC[C@@H]3OCc3ccc(-c4ccc(CN5CCN(CC(C)(C)O)CC5)cc4)cc3)c2)cn1` [Example 182, 2-amino-N-((1S,2S)-2-((4′-((4-(2-hydroxy-2-methylpropyl)-piperazin-1-yl)methyl)-[1,1′-biphenyl]-4-yl)methoxy)cyclopentyl)-5-(1-methyl-1H-pyrazol-4-yl)nicotinamide]: less than 10 nM and less than 100 nM.
Turning to `CC(c1ccc(-c2ccc(CO[C@H]3CNC[C@@H]3NC(=O)c3cc(-c4cnn(C)c4)cnc3N)cc2)cc1)N1CCN(C)CC1` (stereo partly drawn) [Example 438, 2-amino-5-(1-methyl-1H-pyrazol-4-yl)-N-((3S,4S)-4-((4′-(1-(4-methylpiperazin-1-yl)ethyl)-[1,1′-biphenyl]-4-yl)methoxy)pyrrolidin-3-yl)-nicotinamide], the IC50 in assay [1] was less than 10 nM. The 50% growth inhibitory concentration (GI50) in assay [2] was in the range of 500 to 1000 nM.
On to `CC(c1ccc(-c2ccc(CO[C@H]3CCC[C@@H]3NC(=O)c3cc(-c4cnn(C)c4)cnc3N)cc2)cc1)N1CCN(C)CC1` (stereo partly drawn) [Example 208, 2-amino-5-(1-methyl-1H-pyrazol-4-yl)-N-((1S,2S)-2-((4′-(1-(4-methylpiperazin-1-yl)ethyl)-[1,1′-biphenyl]-4-yl)methoxy)cyclopentyl)nicotinamide], for which the IC50 in assay [1] is less than 10 nM. Moreover, in assay [2], the GI50 is less than 100 nM.
The matching figures for `Nc1ncc(-c2ccc(F)nc2)cc1C(=O)N[C@H]1CCC[C@@H]1OCc1ccc(-c2ccc(C3(N4CCN(CCO)CC4)CC3)cc2)cc1` [Example 228]: less than 10 nM and 100 to 500 nM.
